The results in this text go back to patent US6291637A (priority 1999, dated 2001).

In data set [1] the test system is poliovirus IRES-dependent translation (P2CAT RNA). The data set is classed as biochemical.
The subject of data set [2] is cap-dependent translation (CAT RNA). The data set is classed as biochemical.
Data set [3] deals with poliovirus 5'-UTR (IRES)-mediated translation. The data set is classed as biochemical.

Where no end group is shown, it is not given here.

In the case of “5' GCGCGGGCAGCGCA 3' (chemistry not given here) [BI-RNA]”, in data set [1], the “inhibition of poliovirus IRES-mediated translation of P2CAT RNA” value is recorded as “specifically inhibiting translation by internal initiation”. In addition, the “inhibition of cap-dependent translation of CAT (pG3CAT/pCAT) RNA” value in data set [2] was “not cap dependent-translation”.
Consider AALEAKICHQIEYYFGDF [LAP], for which, in the data set on cellular translation, the “effect on cellular translation” value is reported as “does not interfere with cellular translation”. For the same molecule, the “entry into human cells” value with PV is “appears to freely diffuse into human cells”.

B1: La protein (protein, UniProt P05455 1-408, looked up)
Lupus La protein: MAENGDNEKMAALEAKICHQIEYYFGDFNLPRDKFLKEQIKLDEGWVPLEIMIKFNRLNRLTTDFNVIVEALSKSKAELMEISEDKTKIRRSPSKPLPEVTDEYKNDVKNRSVYIKGFPTDATLDDIKEWLEDKGQVLNIQMRRTLHKAFKGSIFVVFDSIESAKKFVETPGQKYKETDLLILFKDDYFAKKNEERKQNKVEAKLRAKQEQEAKQKLEEDAEMKSLEEKIGCLLKFSGDLDDQTCREDLHILFSNHGEIKWIDFVRGAKEGIILFKEKAKEALGKAKDANNGNLQLRNKEVTWEVLEGEVEKEALKKIIEDQQESLNKWKSKGRRFKGKGKGNKAAQPGSGKGKVQFQGKKTKFASDDEHDEHDENGATGPVKRAREETDKEEPASKQQKTENGAGDQ
On to B1, for which, in data set [3], the “effect on viral 5'-UTR-mediated translation” value was “Significant stimulation” and the “reversal of I-RNA-mediated inhibition of translation” value is “reversed”.
